Reference: patent publication US8722937B2 (priority 2006, dated 2014)
Values after ≈ are worked out from the molar mass of the structure shown. Where two headings read alike, the source gives them in different places. Marks after values point to notes of the source that are not given here.

Columns and labels:
B. anthracis = details: cited from earlier work
[1] = system: methicillin-resistant S. aureus (MRSA); details: MRSA ATCC 43300; data taken from ref. 6; cited from earlier work
[2] = target: FabH derived from M. tuberculosis (mtFabH) (Mycobacterium tuberculosis, UniProt P9WNG3); details: 10 µM
Chain of FabH derived from M. tuberculosis (mtFabH) (P9WNG3 whole entry): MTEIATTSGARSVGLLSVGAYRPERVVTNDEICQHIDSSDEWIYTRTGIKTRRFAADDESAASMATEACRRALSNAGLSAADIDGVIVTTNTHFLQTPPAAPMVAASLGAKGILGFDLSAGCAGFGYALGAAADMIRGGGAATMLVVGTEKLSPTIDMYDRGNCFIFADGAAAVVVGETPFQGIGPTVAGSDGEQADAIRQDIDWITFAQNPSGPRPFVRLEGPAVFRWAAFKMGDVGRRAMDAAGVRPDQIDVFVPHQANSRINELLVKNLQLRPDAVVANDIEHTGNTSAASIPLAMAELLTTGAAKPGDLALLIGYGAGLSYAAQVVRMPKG

S. aureus (ATCC 25923) [3] = details: MSSA ATCC 25923; data taken from ref. 6; cited from earlier work
[4] = target: T1, FabH derived from E. coli (ecFabH) (Escherichia coli, UniProt P0A6R0); assay: FabH enzyme assay (coupled trichloroacetic acid precipitation assay), ecFabH; format: biochemical
T1 construct: polyhistidine (N); made in house; host or cells: E. coli
T1 sequence (P0A6R0 1-317): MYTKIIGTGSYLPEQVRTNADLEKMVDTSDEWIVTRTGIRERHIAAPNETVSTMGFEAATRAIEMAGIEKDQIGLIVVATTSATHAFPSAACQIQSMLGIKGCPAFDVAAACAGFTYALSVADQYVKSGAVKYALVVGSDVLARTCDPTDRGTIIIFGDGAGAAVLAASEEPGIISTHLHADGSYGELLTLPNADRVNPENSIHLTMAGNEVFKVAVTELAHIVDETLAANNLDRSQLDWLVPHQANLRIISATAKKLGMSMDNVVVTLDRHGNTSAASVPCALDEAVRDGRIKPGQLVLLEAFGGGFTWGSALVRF

MRSA (ATCC 43300) [5] = details: cited from earlier work
S. aureus (ATCC 25923) [6] = details: MSSA ATCC 25923; data from ref. 6 (PenG, 2g) or ref. 52 (vancomycin); cited from earlier work
[7] = system: methicillin-resistant S. aureus (MRSA); assay: microbe, parasite or virus in culture; format: cell-based, Staphylococcus aureus
MRSA (ATCC 43300) [8] = assay: Minimum inhibitory concentration (MIC), MRSA; format: cell-based, Staphylococcus aureus
S. aureus (ATCC 25923) [9] = assay: microbe, parasite or virus in culture; format: cell-based, Staphylococcus aureus; details: for zone of inhibition at 20 µg/disc: Staphylococcus aureus, ATCC25923, 24 h, 37° C.
S. aureus (ATCC 25923) [10] = assay: Agar dilution minimum inhibitory concentration (MIC), S. aureus; format: cell-based, Staphylococcus aureus
M. tuberculosis = details: reported by Jones et al.; cited from earlier work
B. anthracis (USF 848) [11] = assay: microbe, parasite or virus in culture; format: cell-based, Bacillus anthracis; details: Bacillus anthracis, read-out: Minimum inhibitory concentration (MIC) against B. anthracis (USF 848)
[12] = system: E. coli (K12; ATCC 23590); assay: Minimum inhibitory concentration (MIC), E. coli; format: cell-based; details: Escherichia coli, ATCC23590, read-out: MIC (μg/mL) against E. coli
[13] = system: E. coli (K12; ATCC 23590); assay: Kirby-Bauer zones of inhibition, E. coli; format: cell-based, Escherichia coli; details: K12 strain, ATCC 23590
B. anthracis (USF 848) [14] = assay: microbe, parasite or virus in culture; format: cell-based, Bacillus anthracis; details: Bacillus anthracis, 24 h, 37° C.
[15] = MRSA ATCC 43300, data taken from ref. 6

## O=C(O)c1cn(C2CC2)c2cc(N3CCNCC3)c(F)cc2c1=O [Ciprofloxacin]
B. anthracis
  reported value for Ciprofloxacin (for 50% growth inhibition): 0.094

## CCC(C)SN1C(=O)C(OC)C1c1ccccc1Cl (centres unmarked) [Compound 2g]
[1]
  Zone (MRSA): 34 mm
[2]
  Percent inhibition of mtFabH: 4%
S. aureus (ATCC 25923) [3]
  Zone (MSSA): 32^c mm
[4]; 1 μM of test compound
  Percent inhibition of ecFabH: 30%
MRSA (ATCC 43300) [5]; [15]
  MIC (MRSA): 0.25 µg/mL (≈ 0.834 µM)
S. aureus (ATCC 25923) [6]
  MIC (MSSA): 0.25 µg/mL (≈ 0.834 µM)

## CSN1C(=O)OCC1c1ccccc1 (centres unmarked) [Compound 13, reference compound]
[7]
  Zone (MRSA): 28 mm
MRSA (ATCC 43300) [8]
  MIC (MRSA): 8 µg/mL (≈ 38.2 µM)
S. aureus (ATCC 25923) [9]
  Zone (MSSA): 29 mm
S. aureus (ATCC 25923) [10]; MSSA ATCC 25923
  MIC (MSSA): 4 µg/mL (≈ 19.1 µM)

## CC(C)CCCCCCCS(=O)(=O)CC(N)=O [Compound 30]
M. tuberculosis
  activity against M. tuberculosis, in words: good activity

## CSSc1ccc([N+](=O)[O-])cc1 [Compound 38a, p-Nitrophenyl Methyl Disulfide]
[7]; Staphylococcus aureus, MRSA, 24 h, 37° C., read-out: Average zones of growth inhibition of MRSA (USF-652-659, 919-920)
  zone of inhibition at 20 µg/disc: 23 mm
B. anthracis (USF 848) [11]
  MIC: 0.25 µg/mL (≈ 1.24 µM)
other
  melting point: 29 to 32 °C
[12]
  MIC: 16 µg/mL (≈ 79.5 µM)
[13]; number in parentheses
  Zone of Inhibition (mm), E. coli, zones of partial inhibition: 24 mm
[13]; number outside parentheses
  Zone of Inhibition (mm), E. coli: 17 mm
B. anthracis (USF 848) [14]; read-out: Zones of growth inhibition of B. anthracis (USF 848)
  zone of inhibition at 20 µg/disc: 47 mm
B. anthracis (USF 848) [14]; read-out: Zones of growth inhibition of B. anthracis (USF 848), areas of partial growth inhibition
  zone of inhibition at 20 µg/disc: 54 mm
[4]; 5 μM of test compound, read-out: Percent inhibition of FabH derived from E. coli, ecFabH (%)
  inhibition at 5 µM: 94%
S. aureus (ATCC 25923) [9]; read-out: Zones of growth inhibition of S. aureus (ATCC 25923)
  zone of inhibition at 20 µg/disc: 30 mm
S. aureus (ATCC 25923) [9]; read-out: Zones of growth inhibition of S. aureus (ATCC 25923), areas of partial inhibition
  zone of inhibition at 20 µg/disc: 35 mm
S. aureus (ATCC 25923) [10]; Staphylococcus aureus, ATCC25923, serial dilution in 24-well plate, NCCLS, read-out: Minimum inhibitory concentration (MIC) against S. aureus (ATCC 25923)
  MIC: 16 µg/mL (≈ 79.5 µM)

## CC1(C)S[C@@H]2[C@H](NC(=O)Cc3ccccc3)C(=O)N2[C@H]1C(=O)O [PenG., penicillin G, reference compound]
[1]
  Zone (MRSA): 14 mm
S. aureus (ATCC 25923) [3]
  Zone (MSSA): 33 mm
MRSA (ATCC 43300) [5]; [15]
  MIC (MRSA): 64 µg/mL (≈ 191 µM)
S. aureus (ATCC 25923) [6]
  MIC (MSSA): 0.03 µg/mL (≈ 0.0897 µM)

## CN[C@H](CC(C)C)C(=O)N[C@H]1C(=O)N[C@@H](CC(N)=O)C(=O)N[C@H]2C(=O)N[C@H]3C(=O)N[C@H](C(=O)N[C@H](C(=O)O)c4cc(O)cc(O)c4-c4cc3ccc4O)[C@H](O)c3ccc(c(Cl)c3)Oc3cc2cc(c3O[C@@H]2O[C@H](CO)[C@@H](O)[C@H](O)[C@H]2O[C@H]2C[C@](C)(N)[C@H](O)[C@H](C)O2)Oc2ccc(cc2Cl)[C@H]1O [Vanc., Vancomycin, reference compound]
[7]
  Zone (MRSA): 22 mm
MRSA (ATCC 43300) [5]; MRSA 67, as reported by ref. 52
  MIC (MRSA): 0.39^d μg/mL
S. aureus (ATCC 25923) [9]
  Zone (MSSA): 27 mm
S. aureus (ATCC 25923) [6]
  MIC (MSSA): 0.78^d μg/mL
